# Key:
# incisional wounds = test: Incisional scarring model, macroscopic and microscopic VAS scar assessment 70 days after wounding; assay type: in vivo, Male Sprague Dawley rats
# Description: The guggulsterone (Z) was diluted in a solution containing 1% v/v ethanol (absolute ethanol, 200 proof, for molecular biology, purchased from Sigma-Aldrich) in phosphate buffered saline (PBS) to produce three solutions having concentrations as follows: • 1. 1 ng/100 μl (a 32 nM solution); • 2. 10 ng/100 μl (a 321 nM solution); and • 3. 1000 ng/100 μl (a 32 μM solution). At Day 0, male Sprague Dawley rats (200-250 g) were anaesthetised, shaved and wound sites were marked according to the Renovo rat incisional wounding template (2 wound model, 2×1 cm wounds at 5 cm from the base of the skull and 1 cm from the midline in each rat). […] The scars were assessed using standard macroscopic scar assessment sheets that include a Visual Analogue Scale (VAS) to quantify the quality of the scars. […] 70 days after wounding the experimental rats were killed, and the scars resulting from treated wounds and control wounds assessed both macroscopically and microscopically. The scars of the experimental rats were photographed and assessed using macroscopic scar assessment sheets. […] The best scars (typically of small width with colour, height and contour like normal skin) were scored towards the normal skin end of the scale (the left hand side of the VAS line) and bad scars (typically large width, raised with uneven contours and whiter colour) were scored towards the bad scar end of the scale (the right hand side of the VAS line). The marks were measured from the left hand side to provide the final value for the scar assessment in centimetres (to 1 decimal place). […] Histological slides were stained using Masson's trichrome, and scarring assessed, by two independent observers, using a microscopic visual analogue scale (VAS). […]
# excisional wounds = test: Excisional wound healing model, wound width and re-epithelialisation three days after wounding; assay type: in vivo, Male Sprague Dawley rats; settings: for wound width of excisional wounds: three days after wounding, p<0.05 vs controls
# Description: The guggulsterone (Z) was diluted in a solution containing 1% v/v ethanol (absolute ethanol, 200 proof, for molecular biology, purchased from Sigma-Aldrich) in phosphate buffered saline (PBS) to produce three solutions having concentrations as follows: • 1. 1 ng/100 μl (a 32 nM solution); • 2. 10 ng/100 μl (a 321 nM solution); and • 3. 1000 ng/100 μl (a 32 μM solution). At day 0, Male Sprague Dawley rats (200-250 g) were anaesthetised, shaved and wound sites were marked according to the Renovo rat incisional and excisional wounding template (4 wound model, 2×1 cm wounds at 5 cm from the base of the skull and 1 cm from the midline in each rat and 2×5 mm excisions at 8.5 cm from the base of the skull and 1 cm from the midline of each rat). One hundred microlitres of Guggulsterone (Z) at 1 ng, 10 ng or 1000 ng in 1% v/v ethanol/PBS (EtOH/PBS), were injected intradermally at the target wound sites, A, B, C and D. The intradermal injections caused the formation of a raised bleb, which was then either immediately incised to form 1 cm long experimental wounds at wound positions A and B, or subject to a 5 mm punch biopsy, at wound positions C and D. A separate group of rats were wounded, without any injection, to act as the untreated Naïve control group in addition to the diluent injected control group. All treated wounds were re-injected again 1 day post-wounding with the appropriate treatment via either injection of […] to each of the two margins of the 1 cm wound, or via injection of 25 μl to each of the four quadrants of a 5 mm punch biopsy, and harvested at day 3 post-wounding. […] The wounds were assessed using standard macroscopic wound assessment sheets that include a Visual Analogue Scale (VAS) to quantify the quality of the wounds. The excisions and incisions were analysed microscopically, after histological processing by image analysis for re-epithelialisation (excisions only) and wound width (incisions only) to determine the role of Guggulsterone (Z) on early wound healing. […] The average wound width value was calculated from all of the wounds at each treatment group.
# [1] = cited from earlier work
# [2] = each concentration investigated (1, 10, 1000 ng/100 μl), 70 days post-wounding
smiles,measurement,setting,value
"C/C=C1\C(=O)CC2C3CCC4=CC(=O)CC[C@]4(C)C3CC[C@]12C (stereo partly drawn) [Guggulsterone (Z), (17Z)-Pregna-4,17(20)-diene-3,16-dione-4,17(20)-cis-Pregnadiene-3,16-dione]","inhibition of scarring, macroscopic analysis of scars",incisional wounds; [2],significantly inhibit scarring
same,"inhibition of scarring, microscopic analysis of scars",incisional wounds; [2],significantly inhibit scarring
same,macroscopic appearance of treated scar versus naïve control scar (FIG. 3),"incisional wounds; representative images, 70 days after wounding",considerably more difficult to detect
same,wound width of excisional wounds,excisional wounds; 1 ng/100 μl (3.2 pmoles per cm of wound),significantly decreased wound width
same,wound width of excisional wounds,excisional wounds; 10 ng/100 μl (32 pmoles per cm of wound),significantly decreased wound width
same,"promotion of wound contraction, by width of excisional wounds",excisional wounds; three days after wound formation,able to promote wound contraction
same,soluble in DMSO,"[1]; DMSO, room temperature",5 mg/mL
same,soluble in ethanol,[1]; ethanol,soluble
